Data from patent US4977276A, “Heteroarotinoids as anticancer agents” (The Board of Regents for the Oklahoma Agricultural and …, priority 1989, dated 1990).
Values after ≈ are worked out from the molar mass of the structure shown. “Also recorded” adds a separate entry of the source. Like-named read-outs stand apart in the source and are kept apart here.

Key:
HL-60 cells = test: induction of differentiation of human HL-60 promyelocytic cells (NBT reduction); format: cell-based; details: HL-60, 96 h, read-out: concentration of retinoid effective in achieving a half-maximal response (ED50)
Protocol: These mature cells, unlike the uninduced HL-60, produced superoxide anion when simulated with an appropriate agent, such as TPA. The ability of the individual cells to produce superoxide can be measured by incubating cells with the water-soluble yellow dye, nitroblue tetrazolium (NBT). NBT is reduced to a water-insoluble blue-black formazan by superoxide. This formazan precipitate is associated with those cells that produce superoxide. Thus, the percentage of cells in a population that produce superoxide (NBT-positive cells) can be enumerated under a light microscope.
After incubation for 4 days at 37° C. in a humidified atmosphere of 5% CO2 and air, the capacity of the cells to reduce NBT was determined. […] This cell suspension was mixed with an equal volume of phosphate buffered saline containing 1 mg of NBT/mL and […]. The reaction mixture was incubated at 37° C. for 25 minutes, and the reaction was terminated by cooling in an ice water bath. Cytospin slides were prepared from a portion of this reaction mixture and stained with Wright-Giemsa. A minimum of 200 cells were counted under light microscopy to determine the percentage of cells with cell-associated formazan.

[1] = tested on: ornithine decarboxylase (ODC); test: suppression of TPA induced ornithine decarboxylase (ODC) activity in mouse skin; format: in vivo; details: for % of Inhibition as Compared to Control: second table (60 min)
Protocol: In the ODC assay, either 13-cis-retinoic acid or trans-retinoic acid was employed. The following Table summarizes the result of the ODC assays.
Epidermus was separated, homogenized, and centrifuged at 30,000× g. Soluble epidermal ODC activity was assayed. The retinoids were evaluated in three independent experiments (3 groups of mice with 3 mice per group) and the results from the experiments were normalized (% inhibition) for comparison. […] Which standard is used appears to be relatively unimportant for determining activity in the assay, but the data presented in the Table identifies the standard for sake of clarity and accuracy of presentation. Thus, the presence of the heteroatom in these arotinoids has not eliminated biological activity. […] Consequently, the nature of the terminus group is also important.

RPMI-7951 (melanoma) = test: Human Tumor Cell Line Bioassay (HTCL), RPMI-7951; format: cell-based; design: key to ED50 Values: NDT: No detectable toxicity; details: RPMI-7951, MTT, O.D. 50% of control; for IC50: Homo sapiens, read-out: ED50 Values
Protocol: (§1) The Human Tumor Cell Line Bioassay (HTCL) has been conducted in a manner similar to the procedure described by Alley and co-workers (Cancer Research 1988, 48, 589-601). A panel of 4 tumor cell lines were grown in microliter plates and various concentrations of the test compounds were added to the wells. After 4 days, the number of viable cells were measured in terms of production of formazin after incubation with MTT [3-(4,5-dimethylthiazol-2-yl)-2,5-diphenyltetrazolium bromide]. Formazin production is directly proportional to the viable cell number/well and can be measured spectrophotometrically after solubilization.
The cell lines used in the HTCL assay were A-549 (lung adenocarcinoma), HT-29 (colon adenocarcinoma), MCF-7 (breast adenocarcinoma), and RPMI-7951 (melanoma). With the exception of HT-29, these cells have been adopted to grow in B10 medium which consists of Eagle's Minimum Essential Medium supplemented with 1.5× the essential amino acids, 2× the non-essential amino acids, 1.5× vitamins, 1× L-glutamine, 10% calf bovine serum (CBS), and 1× antibiotic solution (PSF) consisting of 50 U/mL of penicillin, 50 ug/mL of streptomycin sulfate, and 50 ug/mL of amphotericin B. HT-29 cells were grown in McCoy's 5A medium supplemented with 10% CBS and 1× PSF. Stock cultures of cells were routinely grown in 25 cm^2 flasks (T-25) and passaged on a weekly basis. Cells were passaged by washing twice with phosphate buffered saline (PBS) and once with a 0.005% trypsin--0.01% EDTA solution. Trypsin-EDTA solution was added and the flask was allowed to incubate for 2-5 minutes until the cells were detached. After detaching from the flask, the cells were resuspended in their appropriate medium, counted on a Coulter Counter (ZBI), and an aliquot was transferred to new T-25 flasks. The remaining cells were used to set up the assay in 96 well microliter plates. Either 3,000 (HT-29, MCF-7) or 2,000 (A-549, RPMI-7951) cells were added to the wells in a 96-well microliter plate in 0.2 mL of medium (Day 1). On Day 2, the compounds were resuspended at 1 or 2 mg/mL in acetone, and the compounds were serially diluted 10 or 5 fold in PBS and 20 uL of each dilution starting at 100 or 200 ug/mL was added to 4 wells of the microliter plate. Doxyrubicin was used as a positive control compound. On Day 7, 20 uL of MTT (2 mg/mL) was added to each of the wells. The plates were then incubated at 37° C. for 4 hours. After incubation, the medium and MTT were removed by aspiration and 100 uL of DMSO was added to solubilize the formazin product. The plates were read on a Dynatech 700 plate reader at 540 nm, and the data were collected on an IBM PC. The data were graphed and the ED50 was determined from the graph.

[2] = tested on: HT-29 (colon adenocarcinoma); test: Human Tumor Cell Line Bioassay (HTCL), HT-29; format: cell-based; details: HT-29, MTT, O.D. 50% of control
Protocol: as §1
The cell lines used in the HTCL assay were A-549 (lung adenocarcinoma), HT-29 (colon adenocarcinoma), MCF-7 (breast adenocarcinoma), and RPMI-7951 (melanoma). […] After detaching from the flask, the cells were resuspended in their appropriate medium, counted on a Coulter Counter (ZBI), and an aliquot was transferred to new T-25 flasks. […] The plates were read on a Dynatech 700 plate reader at 540 nm, and the data were collected on an IBM PC. The data were graphed and the ED50 was determined from the graph.

[3] = incubation 4 days at 37° C., NBT-positive cells
[4] = retinoid dose 34 nmol + TPA, second table, acetone + TPA control 1.67
[5] = with trans-retinoic acid as the standard
[6] = in comparison with 13-cis-retinoic acid as the standard, or among the tested compounds
[7] = retinoid dose 17 nmol + TPA, first table, acetone + TPA control 0.90

CC(/C=C/C=C(\C)c1ccc2c(c1)C(C)(C)CCO2)=C\C(=O)O [(47), 7-[4,4-Dimethylchroman-6-yl]-3,7-dimethyl-2,4,6-heptatrienoic acid]
EC50 (HL-60 cells; [3]): 200 nM | % of Inhibition as Compared to Control ([1]; retinoid dose 34 nmol + TPA): 74% | ODC Activity [1, 4]: 1.4 ± 0.2 nmol CO2 /60 min/mg protein | activity in the ODC assay in words [1, 5]: slightly less active than the standard

CCOC(=O)/C=C(C)/C=C/C=C(\C)c1ccc2c(c1)C(C)(C)CCS2 [(39), Ethyl 7-[4,4-Dimethylthiochroman-6-yl]-3,7-dimethyl-2,4,6-heptatrienoate]
activity in the ODC assay in words [1, 6]: strongest activity; also recorded: more active | ODC Activity [1, 7]: 0.0 ± 0.0 nmol CO2 /30 min/mg protein

CC1=C(/C=C/C(C)=C/C=C/C(C)=C\C(=O)O)C(C)(C)CCC1 [13-cis-retinoic acid, reference compound]
ODC Activity [1, 7]: 0.1 ± 0.01 nmol CO2 /30 min/mg protein | % of Inhibition as Compared to Control ([1]; retinoid dose 17 nmol + TPA): 92% | ODC Activity ([1]; retinoid dose 17 nmol + TPA, second table, acetone + TPA control 1.67): 0.14 ± 0.04 nmol CO2 /60 min/mg protein

CC(/C=C/C=C(\C)c1ccc2c(c1)C(C)(C)CCS2)=C\C(=O)OCCN1C(=O)c2ccccc2C1=O [(40), (2-Phthalimide-ethyl) 7-[4,4-Dimethylthiochroman-6-yl]-3-7-dimethyl-2,4,6-heptatrienoate]
% of Inhibition as Compared to Control ([1]; retinoid dose 34 nmol + TPA): 42% | ODC Activity [1, 4]: 0.97 ± 0.13 nmol CO2 /60 min/mg protein | activity in the ODC assay in words [1, 5]: less active compared to the same control

CC1=C(/C=C/C(C)=C/C=C/C(C)=C/C(=O)O)C(C)(C)CCC1 [trans-retinoic acid]
IC50 (RPMI-7951 (melanoma); 96 h): 30 µg/mL (≈ 99.9 µM) | ED50 Values (RPMI-7951 (melanoma)): NDT | EC50 (HL-60 cells): 41 nM

CC(/C=C/C=C(\C)c1ccc2c(c1)C(C)(C)CCS2)=C\C(=O)O [(38), 7-[4.4-Dimethylthiochroman-6-yl]-3,7-dimethyl-2,4,6-heptatrienoic acid]
EC50 (HL-60 cells; [3]): 72 nM | activity in the ODC assay in words [1, 6]: essentially equivalent in activity to the standard | ODC Activity [1, 7]: 0.1 ± 0.01 nmol CO2 /30 min/mg protein

COc1cccc2c1C(=O)c1c(O)c3c(c(O)c1C2=O)C[C@@](O)(C(=O)CO)C[C@@H]3O[C@H]1C[C@H](N)[C@H](O)[C@H](C)O1 [Doxyrubicin]
ED50 Values ([2]; 5760 min): 0.6 µg/mL (≈ 1.1 µM) | IC50 ([2]; Homo sapiens, HT-29, 96 h, read-out: ED50 Values): 0.3 µg/mL (≈ 0.552 µM) | IC50 (RPMI-7951 (melanoma); RPMI-7951, 96 h): 0.2 µg/mL (≈ 0.368 µM) | ED50 Values (RPMI-7951 (melanoma); 5760 min): 0.1 µg/mL (≈ 0.184 µM)
